Experimental data from patent publication US12037344B2, “NLRP3 modulators” (INNATE TUMOR IMMUNITY, INC., priority 2018, dated 2024).
Read-outs that look alike come from different tables or passages of the source.

Experiments:
TLR7 = biological target: T1, TLR7 (Homo sapiens, UniProt Q9NYK1); assay: In vitro human TLR7 binding reporter assay (HEK-Blue, NF-kB/AP1-inducible SEAP); assay type: cell-based; conditions: read-out: TLR7 Agonist EC50
T1 construct: human HEK-Blue cells co-expressing a TLR7 or TLR8 gene
T1 sequence (Q9NYK1 27-1049): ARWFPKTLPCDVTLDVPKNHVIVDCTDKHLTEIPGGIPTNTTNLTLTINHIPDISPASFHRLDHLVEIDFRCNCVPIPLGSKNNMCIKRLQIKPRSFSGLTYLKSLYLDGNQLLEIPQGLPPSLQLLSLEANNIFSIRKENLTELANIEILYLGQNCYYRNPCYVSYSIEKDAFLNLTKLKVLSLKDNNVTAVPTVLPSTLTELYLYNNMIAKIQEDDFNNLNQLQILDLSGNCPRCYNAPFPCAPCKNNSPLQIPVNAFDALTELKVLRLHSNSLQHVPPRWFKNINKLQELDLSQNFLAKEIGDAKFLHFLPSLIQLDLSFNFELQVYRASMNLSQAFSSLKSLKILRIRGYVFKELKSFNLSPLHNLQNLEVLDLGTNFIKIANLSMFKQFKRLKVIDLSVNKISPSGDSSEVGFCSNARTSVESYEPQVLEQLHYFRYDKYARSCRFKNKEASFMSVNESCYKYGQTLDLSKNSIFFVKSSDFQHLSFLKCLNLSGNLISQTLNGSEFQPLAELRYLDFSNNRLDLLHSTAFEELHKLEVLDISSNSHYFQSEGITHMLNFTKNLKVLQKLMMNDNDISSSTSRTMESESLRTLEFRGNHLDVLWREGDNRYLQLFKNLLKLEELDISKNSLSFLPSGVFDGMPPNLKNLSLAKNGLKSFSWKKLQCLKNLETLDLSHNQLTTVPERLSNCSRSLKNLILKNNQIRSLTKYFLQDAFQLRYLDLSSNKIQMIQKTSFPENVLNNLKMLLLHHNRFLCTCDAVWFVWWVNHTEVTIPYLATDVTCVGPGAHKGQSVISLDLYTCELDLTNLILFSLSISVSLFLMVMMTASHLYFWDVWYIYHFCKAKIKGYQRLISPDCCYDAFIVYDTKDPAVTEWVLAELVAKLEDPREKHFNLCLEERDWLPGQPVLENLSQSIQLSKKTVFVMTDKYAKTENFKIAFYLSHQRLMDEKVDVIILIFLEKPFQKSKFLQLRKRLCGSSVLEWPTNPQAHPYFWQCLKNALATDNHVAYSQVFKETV
Method in brief: (§1)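 Cells are seeded and grown for 24 h. Compounds or DMSO are then added and incubated 18 h at 37 °C. Quanti-Blue is added, and SEAP is read after thirty minutes. EC50 values are normalized, with RLU from 50 μM reference standard setting 100% Ymax.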

THP-1 cells = assay: Measurement of IL-1β production, hTRF protocol (second alternative procedure), THP-1 cells; assay type: cell-based, human; conditions: Homo sapiens
Method in brief: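 Compounds, dilution series starting at a final 10 μM, were incubated 2 hours at 37° C with PMA-differentiated THP-1 cells (50 ng/ml overnight; 50,000 cells/well, 2% FBS RPMI). Released IL-1β quantified in supernatant by hTRF kit with 1:40 antibody dilution, 4° C overnight, 665/615 nm ratio.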

TLR8 = biological target: T2, TLR8 (Homo sapiens, UniProt Q9NR97); assay: In vitro human TLR8 binding reporter assay (HEK-Blue, NF-kB/AP1-inducible SEAP); assay type: cell-based; conditions: read-out: TLR8 Agonist EC50
T2 construct: human HEK-Blue cells co-expressing a TLR7 or TLR8 gene
T2 sequence (Q9NR97 27-1041): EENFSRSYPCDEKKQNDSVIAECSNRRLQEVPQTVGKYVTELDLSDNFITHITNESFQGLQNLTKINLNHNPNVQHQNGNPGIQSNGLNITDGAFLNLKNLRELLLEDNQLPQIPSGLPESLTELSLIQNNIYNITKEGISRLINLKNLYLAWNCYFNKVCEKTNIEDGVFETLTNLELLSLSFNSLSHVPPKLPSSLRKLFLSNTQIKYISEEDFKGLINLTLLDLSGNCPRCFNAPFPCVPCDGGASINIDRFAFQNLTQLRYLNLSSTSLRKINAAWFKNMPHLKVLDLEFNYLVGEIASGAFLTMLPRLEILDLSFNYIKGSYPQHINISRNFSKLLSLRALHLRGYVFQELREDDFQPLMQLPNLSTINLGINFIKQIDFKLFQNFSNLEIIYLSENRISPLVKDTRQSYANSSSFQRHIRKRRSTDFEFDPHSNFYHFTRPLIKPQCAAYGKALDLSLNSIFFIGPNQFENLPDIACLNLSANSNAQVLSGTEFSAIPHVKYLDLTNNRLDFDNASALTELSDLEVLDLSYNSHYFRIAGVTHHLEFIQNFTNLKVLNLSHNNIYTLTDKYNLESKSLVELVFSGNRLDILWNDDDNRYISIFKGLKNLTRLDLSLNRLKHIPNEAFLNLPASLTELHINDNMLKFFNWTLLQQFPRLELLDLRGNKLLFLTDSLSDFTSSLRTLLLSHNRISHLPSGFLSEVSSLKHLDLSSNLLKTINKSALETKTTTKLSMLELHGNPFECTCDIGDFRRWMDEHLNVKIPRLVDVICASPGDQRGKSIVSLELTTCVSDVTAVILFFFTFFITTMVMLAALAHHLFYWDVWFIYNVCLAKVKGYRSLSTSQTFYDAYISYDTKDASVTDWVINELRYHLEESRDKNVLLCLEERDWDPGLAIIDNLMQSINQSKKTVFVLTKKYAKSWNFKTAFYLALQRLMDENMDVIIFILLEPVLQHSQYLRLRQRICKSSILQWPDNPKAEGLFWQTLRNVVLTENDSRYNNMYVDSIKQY
Method in brief: as §1

[1] = THP-1, IL-1β production, human, read-out: NLRP3 hILIB EC50
[2] = THP-1, IL-1β production, human cells, read-out: NLRP3 hILIB EC50

Row | SMILES | EC50 (TLR7; activity range class) [µM] | EC50 (THP-1 cells; [1]) [µM] | EC50 (TLR8; activity range class) [µM] | EC50 (TLR7; activity range) [µM] | EC50 (THP-1 cells; [2]) [µM] | EC50 (TLR8; activity range) [µM] | EC50 (THP-1 cells; THP-1, read-out: NLRP3 hILIB EC50) [µM]
1 | N#CC[C@@H](O)Cn1cc2c(N)nc3cc(-c4cc[nH]n4)ccc3c2n1 [Example 381] | > 100 | 0.74 | > 100 | – | – | – | –
2 | Cc1c(CN[C@H]2CCOC2)[nH]c2c1c(N)nc1cc(-c3cc[nH]n3)ccc12 [Example 469] | – | – | – | > 100 | 0.84 | > 100 | –
3 | Nc1nc2cc(-n3cccn3)ccc2c2cn(CCNC(=O)c3ccccc3)nc12 [Example 132, N-{2-[4-amino-7-(1H-pyrazol-1-yl)-2H-pyrazolo[3,4-c]quinolin-2-yl]ethyl}benzamide] | > 100 | – | 20 to 100 | – | – | – | 0.34
4 | Nc1nc2cc(-c3cc[nH]n3)ccc2c2cn(CCNC(=O)c3ncc(C(F)(F)F)cc3F)nc12 [Example 91] | > 100 | 1.17 | 20 to 100 | – | – | – | –
5 | Nc1nc2cc(-c3cc[nH]n3)ccc2c2nn(C3CCOC3)cc12 (racemic) [Example 237] | > 100 | 0.09 | > 100 | – | – | – | –
6 | COC1CN(CCn2ncc3c(N)nc4cc(-c5cc[nH]n5)ccc4c32)C1 [Example 435] | – | – | – | > 100 | 3.61 | > 100 | –
7 | Nc1nc2cc(-c3cc[nH]n3)ccc2c2cn(CCNC(=O)c3cc(CO)ccn3)nc12 [Example 57] | > 100 | 2.21 | > 100 | – | – | – | –
8 | Nc1nc2cc(-c3cc[nH]n3)ccc2c2c1cnn2CC(O)CO (stereo not drawn) [Example 235] | > 100 | 12.5 | > 100 | – | – | – | –
9 | Nc1nc2cc(-c3cc[nH]n3)ccc2c2nn(CCC(=O)N3CC(O)C3)cc12 [Example 512] | – | – | – | > 100 | 5.82 | > 100 | –
10 | Nc1nc2cc(-c3cc[nH]n3)ccc2c2cn(CCNC(=O)c3cnccn3)nc12 [Example 83] | > 100 | 0.36 | > 100 | – | – | – | –
11 | Cc1cc(C(=O)NCCn2cc3c(n2)c(N)nc2cc(-c4cc[nH]n4)ccc23)nn1C [Example 45] | > 100 | 1.41 | > 100 | – | – | – | –
12 | COCC(C)n1cc2c(N)nc3cc(-c4cc[nH]n4)ccc3c2n1 (stereo not drawn) [Example 336] | > 100 | 0.47 | > 100 | – | – | – | –
13 | CCC(=O)NC(C)Cn1cc2c(N)nc3cc(-c4ccn[nH]4)ccc3c2n1 (stereo not drawn) [Example 297] | > 100 | 2.83 | > 100 | – | – | – | –
14 | CC(=O)N1CCCC1Cn1cc2c(N)nc3cc(-c4ccn[nH]4)ccc3c2n1 (stereo not drawn) [Example 258] | > 100 | 1.78 | > 100 | – | – | – | –
15 | CC(C)(Cn1cc2c(N)nc3cc(-c4ccn[nH]4)ccc3c2n1)C(=O)N1CC(O)C1 [Example 597] | – | – | – | > 100 | 8.7 | > 100 | –
16 | CC(C)(C)c1cccc(C(=O)NCCc2cc3c(N)nc4cc(-c5cc[nH]n5)ccc4c3[nH]2)n1 [Example 499] | – | – | – | > 100 | 1.34 | > 100 | –
